From patent publication US20210346368A1, “ANTIBIOTIC SOLUTION AND METHOD OF INJECTION TO PREVENT OPHTHALMIC INFECTIONS” (priority 2017, published 2021)

Assay: injection of moxifloxacin antibiotic solution into the anterior segment of the eye during surgery to prevent endophthalmitis
Format: in vivo
Experimental: Further details regarding the structure, preparation, and physical properties of moxifloxacin are provided in U.S. Pat. Nos. 4,990,517 and 5,607,942, and German application DE19937116, all of which are incorporated herein by reference. In one embodiment, the antibiotic solution may comprise […] of cyanocobalamin, or an amount sufficient to tint or color the resulting antibiotic solution. The antibiotic solution may further comprise any suitable carrier fluid (e.g., liquid diluents such as water, ethyl alcohol, or propylene glycol), so long as the resulting solution has osmotic values that are compatible with the aqueous humor of the eye and ophthalmic tissues. In one embodiment, the antibiotic solution is prepared and stored in a single-dose vial, without the need for preservatives. This allows the surgeon to provide an accurate concentration in sterile environments. Further, due to the antibiotic solution comprising cyanocobalamin, the resulting antibiotic solution is red in color. This provides a visual enhancement to the surgeon when injecting into the eye. For example, a surgeon would inject around 0.3 milliliters of the antibiotic solution (e.g., solution comprising moxifloxacin and cyanocobalamin) into the anterior segment of the eye during the intraoperative portion of cataract surgery. […]

Compound: COc1c(N2C[C@@H]3CCCN[C@@H]3C2)c(F)cc2c(=O)c(C(=O)O)cn(C3CC3)c12 [moxifloxacin]
- effectiveness (preliminary results) (200 micrograms to 600 micrograms of moxifloxacin injected into the eye): effective
- risk of endophthalmitis (moxifloxacin injected into the anterior segment of the eye): significantly reduced or eliminated altogether
